Experimental data as given in patent US20100221763A1, “Specific Acceptors for Transferases to Saccharides and Method for Obtaining and Using Same” (Health Research, Inc, priority 2005, published 2010).

Experiments:
[1] = tested on: α1,2-L-FT plus α1,4-L-FT of colon tumor CC9338; assay: α1,2-L-FT plus α1,4-L-FT assay, colon tumor extract; assay type: biochemical, human; details: 1 mg protein of the tissue extract
Experimental: (§1) Colon tumor tissue (CC9338) and breast tumor tissue (BC9400) were obtained during surgical procedures at Roswell Park Cancer Institute and stored frozen within 1 h at −70° C. The tissues were homogenized at 4° C. with 4 volumes of 0.1M Tris Maleate […] 0.1% NaN3 using kinematica. After adjusting the concentration of Triton X-100 to 2%, these homogenates were mixed in the cold room for 1 h using Speci-Mix (Thermolyne) and then centrifuged at 20,000 g for 1 h at 4° C. The clear fat-free supernatant was stored frozen at −20° C. until use. Aliquots of 10 μL from this extract were used in assays run in duplicates. Glycosyltransferase activity in cell lysate was determined by mixing the lysates with acceptor and radiolabeled donor (monosaccharide) under the reaction conditions detailed below, followed by separation of un-reacted donor from the radioactive product using anionic or hydrophobic chromatography. In all cases, the radioactive content of isolated products was determined by using 3a70 scintillation cocktail (Research Products International, Mount Prospect, Ill.) and a Beckman LS6500 scintillation counter. Controls for each assay contained the reaction mixture with everything except the acceptor. All assays were run in duplicate. […]

[2] = tested on: α1,2-L-FT plus α1,4-L-FT of breast tumor BC9400; assay: α1,2-L-FT plus α1,4-L-FT assay, breast tumor extract; assay type: biochemical, human; details: 1 mg protein of the tissue extract
Experimental: as §1

LNCaP α2,3(O)ST = assay: Sialyltransferase assay with LNCaP cell extract; assay type: biochemical, human; details: Table I; acceptor 7.5 mM; 100% = 30930 CPM (3-O-MeGalβ1,4GlcNAcβ1,6(Galβ1,3)GalNAcα-O-Bn)
Summary of the method: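 LNCaP Triton X-100 extract (5 mg protein/ml; 0.1M Tris-maleate pH6.3) incubated with acceptor (typically 7.5 mM) and CMP-[9-3H]NeuAc (typically 0.2 μCi) in 0.1M Na cacodylate pH6.0, 2 h at 37 °C, in duplicate. Radioactive product separated on Dowex-1-formate, Sep-Pak C18 or Biogel P2 and counted by scintillation; blank without acceptor subtracted.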

[3] = biological target: T1, Rat recombinant α2,3(O)ST (Rattus norvegicus, UniProt Q11205); assay: Sialyltransferase assay with cloned α2,3(O)ST; assay type: biochemical; details: Table I; acceptor 7.5 mM; 100% = 40560 CPM (3-O-MeGalβ1,4GlcNAcβ1,6(Galβ1,3)GalNAcα-O-Bn)
T1 construct: purchased Calbiochem
T1 sequence (Q11205 1-350): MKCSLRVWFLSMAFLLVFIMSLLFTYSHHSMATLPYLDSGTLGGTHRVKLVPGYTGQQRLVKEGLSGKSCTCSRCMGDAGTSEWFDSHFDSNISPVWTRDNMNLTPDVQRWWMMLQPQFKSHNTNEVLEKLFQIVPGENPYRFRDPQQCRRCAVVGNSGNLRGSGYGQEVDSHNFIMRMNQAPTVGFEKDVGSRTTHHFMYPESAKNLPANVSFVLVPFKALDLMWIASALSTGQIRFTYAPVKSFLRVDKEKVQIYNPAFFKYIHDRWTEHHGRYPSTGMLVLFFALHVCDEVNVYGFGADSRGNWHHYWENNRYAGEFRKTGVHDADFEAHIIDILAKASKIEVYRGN

[4] = tested on: β-GlcNAc:β1,4Gal-T of breast tumor BC9400; assay: β-GlcNAc:β1,4Gal-T assay, breast tumor extract; assay type: biochemical, human; details: other acceptors, 1 mg protein of the tissue extract
Experimental: (§2) Colon tumor tissue (CC9338) and breast tumor tissue (BC9400) were obtained during surgical procedures at Roswell Park Cancer Institute and stored frozen within 1 h at −70° C. The tissues were homogenized at 4° C. with 4 volumes of 0.1M Tris Maleate […] 0.1% NaN3 using kinematica. After adjusting the concentration of Triton X-100 to 2%, these homogenates were mixed in the cold room for 1 h using Speci-Mix (Thermolyne) and then centrifuged at 20,000 g for 1 h at 4° C. The clear fat-free supernatant was stored frozen at −20° C. until use. Aliquots of 10 μL from this extract were used in assays run in duplicates. Glycosyltransferase activity in cell lysate was determined by mixing the lysates with acceptor and radiolabeled donor (monosaccharide) under the reaction conditions detailed below, followed by separation of un-reacted donor from the radioactive product using anionic or hydrophobic chromatography. In all cases, the radioactive content of isolated products was determined by using 3a70 scintillation cocktail (Research Products International, Mount Prospect, Ill.) and a Beckman LS6500 scintillation counter. Controls for each assay contained the reaction mixture with everything except the acceptor. All assays were run in duplicate.
(§3) The acceptors used for measuring the glycosyltransferase and sulfotransferase activities are given in Table I. The following are the conditions for individual enzymatic assays. Reaction temperature in all cases was 37° C. α2,3- and α2,6 sialytransferase (ST) assay reactions proceeded for 2 h in a mixture containing 100 mM sodium cacodylate buffer (pH 6.0), 7.5 mM acceptor, CMP-[9-^3H]NeuAc (typically 0.2 μCi) and 10 μl cell extract in a total volume of 20 μl [Chandrasekaran et al., 1995]. βGlcNAc:β1,4Gal-T and αGalNAc:β1,3Gal-T assay mixtures in duplicate contained 0.1M Hepes-NaOH pH 7.0, 7 mM ATP, 20 mM Mn acetate, 1 mM UDP-Gal, UDP [^14C]Gal (0.05 μCi; 327mCi/mmol; Amersham), 0.5 mM acceptor (unless otherwise stated) and the enzyme in a total volume of 20 μL. It was incubated for 4 h [Chandrasekaran et al., 2001]. βGlcNAc:β1,4GalNAc-T assay mixtures in duplicate contained 0.1M Hepes-NaOH pH 7.0, 7 mM ATP, 20 mM Mn acetate. UDP [^3H] GalNAc (0.20 μCi; 7.8 Ci/mmol: New England Nuclear Corp.) 7.5 mM acceptor (unless otherwise stated) and the enzyme in a total volume of 20 μL and incubated for 4 h [Chandrasekaran et al., 2001].
(§4) Dowex-1-C1 or Sep-Pak C18 cartridges were used to isolate radiolabeled product from the reaction mixture. For GalT, GalNAc-T and FT assays, the incubation mixture was diluted with 1 ml water and passed through a 1 ml Dowex-1-C1 column [Chandrasekaran et al., 1996; Chandrasekaran et al., 2001]. The column was washed twice with 1 ml of water. The breakthrough and the water wash contained the [^14C]-galactosylated or [^14C]-fucosylated products formed with neutral acceptors. 3 ml of 0.1M NaCl was used to obtain [^14C]-fucosylated products from sialylated acceptors after water elution. For sialytransferase assays, the radioactive products from benzylglycosides were separated by hydrophobic chromatography on Sep-Pak C18 cartridge (Waters, Milford, Mass.), and elution of the product was done with 3 ml methanol [Palcic et al., 1988]. For sulfotransferase assays, elution of the [^35S]-sulfated compound from Dowex-1-C1 column was achieved by 3 ml of 0.2M NaCl [Chandrasekaran et al., 2004].

[5] = tested on: β-GlcNAc:β1,4GalNAc-T of colon tumor CC9338; assay: β-GlcNAc:β1,4GalNAc-T assay, colon tumor extract; assay type: biochemical, human; details: other acceptors, 1 mg protein of the tissue extract
Experimental: as §2, §3, §4

[6] = tested on: β-GlcNAc:β1,4GalNAc-T of breast tumor BC9400; assay: β-GlcNAc:β1,4GalNAc-T assay, breast tumor extract; assay type: biochemical, human; details: other acceptors, 1 mg protein of the tissue extract
Experimental: as §2, §3, §4

[7] = tested on: β-GlcNAc:β1,4Gal-T of colon tumor CC9338; assay: β-GlcNAc:β1,4Gal-T assay, colon tumor extract; assay type: biochemical, human; details: other acceptors, 1 mg protein of the tissue extract
Experimental: as §2, §3, §4

[8] = tested on: α1,2-L-FT of colon tumor CC9338; assay: α1,2-L-FT assay, colon tumor extract; assay type: biochemical, human; details: 1 mg protein of the tissue extract
Experimental: as §2
(§5) α1,2, α1,6-, α1,3- and α1,4-fucosyltransferase (FT) assay reactions were carried out for 2 h in a reaction mixture containing 50 mM Hepes buffer (pH 7.5), 5 mM MnCl2, 7 mM ATP, 3 mM NaN3, 3 mM synthetic acceptor or 40 μg of fetuin-based acceptor, 0.05 μCi GDP-[14C]Fuc (290 mCi/mmol) and 10 μl cell extract in a total volume of 20 μl [Chandrasekaran et al., 1996]. Sulfotransferase (Sulfo T) assay reactions took 2 h and required a mixture containing 100 mM Tris-maleate (pH 7.2), 5 mM Mg Acetate, 5 mM ATP, 10 mM NaF, 10 mM BAL, 7.5 mM acceptor, 0.5 μCi of [^35S]PAPS (specific activity 2.4 Ci/mmol) and 10 μl of cell extract in a total volume of 30 μl [Chandrasekaran et al., 2004].
as §4, with “For sulfotransferase assays, elution of the [^35S]-sulfated compound from Dowex-1-C1 column was achieved by 3 ml of 0.2M NaCl [Chandrasekaran et al., 2004].” left out

[9] = tested on: α1,2-L-FT of breast tumor BC9400; assay: α1,2-L-FT assay, breast tumor extract; assay type: biochemical, human; details: 1 mg protein of the tissue extract
Experimental: as §2, §5
as §4, with “For sulfotransferase assays, elution of the [^35S]-sulfated compound from Dowex-1-C1 column was achieved by 3 ml of 0.2M NaCl [Chandrasekaran et al., 2004].” left out

human FTVII = biological target: T2, human FTVII (Homo sapiens, UniProt Q11130); assay: [14C]Fuc transfer by FTVII from extracts of transfected COS-7 cells; assay type: biochemical; details: extracts of COS-7 cells transfected with FTVII cDNA; unpublished results
T2 construct: expressed in transfected cells; host or cells: COS-7
T2 sequence (Q11130 whole entry): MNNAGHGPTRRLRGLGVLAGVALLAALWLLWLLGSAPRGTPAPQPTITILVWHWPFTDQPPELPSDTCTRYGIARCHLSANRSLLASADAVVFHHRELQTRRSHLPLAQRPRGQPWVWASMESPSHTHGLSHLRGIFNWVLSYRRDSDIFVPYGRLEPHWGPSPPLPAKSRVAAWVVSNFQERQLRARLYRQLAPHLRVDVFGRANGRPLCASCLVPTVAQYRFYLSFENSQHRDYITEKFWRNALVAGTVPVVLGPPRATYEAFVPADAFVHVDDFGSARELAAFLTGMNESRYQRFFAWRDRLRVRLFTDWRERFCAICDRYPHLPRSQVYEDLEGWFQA
Excerpt: The sialylation steps in this reaction scheme were validated by analyzing reaction products using mass spectroscopy (Table VI).

Compound	a) β-GlcNAc:β1,4Gal-T activity: incorporation of radioactive sugar [4]	b) β-GlcNAc:β1,4GalNAc-T activity: incorporation of radioactive sugar [5]	b) β-GlcNAc:β1,4GalNAc-T activity: incorporation of radioactive sugar [6]	a) β-GlcNAc:β1,4Gal-T activity: incorporation of radioactive sugar [7]	further results
CO[C@@H]1O[C@H](CO)[C@H](O)[C@H](O[C@@H]2O[C@H](CO)[C@@H](O)[C@H](O[C@@H]3O[C@H](CO)[C@H](O)[C@H](O)[C@H]3O)[C@H]2NC(C)=O)[C@H]1O [Galβ1,3GlcNAcβ1,3Galβ-O-Me]	–	–	–	–	α1,2-L-FT plus α1,4-L-FT activity: incorporation of radioactive sugar [1]: 578.9 CPM × 10^−3; α1,2-L-FT plus α1,4-L-FT activity: incorporation of radioactive sugar [2]: 16.8 CPM × 10^−3; Sialyltransferase activity (%) LNCaP α2,3(O)ST (LNCaP α2,3(O)ST): 1.4%; Sialyltransferase activity (%) Cloned α2,3(O)ST [3]: 37.2%
C=CCO[C@@H]1O[C@H](CO[C@@H]2O[C@H](CO)[C@@H](O)[C@H](O)[C@@H]2O[C@@H]2O[C@H](CO)[C@@H](O)[C@H](O)[C@H]2NC(C)=O)[C@@H](O)[C@H](O)[C@H]1O [GlcNAcβ1,2Manβ1,6Glcβ-O—Al]	70.5 CPM × 10^−3	25.6 CPM × 10^−3	57.9 CPM × 10^−3	277.7 CPM × 10^−3	–
OC[C@H]1O[C@@H](OCc2ccccc2)[C@H](O)[C@@H](O)[C@H]1O [Galβ-O-Bn]	–	–	–	–	α1,2-L-FT activity: incorporation of radioactive sugar [8]: 20.6 CPM × 10^−3; α1,2-L-FT activity: incorporation of radioactive sugar [9]: 9.8 CPM × 10^−3
CO[C@@H]1O[C@H](CO)[C@H](O)[C@H](O[C@@H]2O[C@H](CO)[C@@H](O)[C@H](O)[C@H]2NC(C)=O)[C@H]1O [GlcNAcβ1,3Galβ-O-Me]	338.5 CPM × 10^−3	20.9 CPM × 10^−3	60.9 CPM × 10^−3	247.9 CPM × 10^−3	–
CO[C@@H]1O[C@H](COS(=O)(=O)O)[C@@H](O[C@@H]2O[C@H](CO)[C@H](O)[C@H](O[C@@H]3O[C@H](COS(=O)(=O)O)[C@@H](O[C@@H]4O[C@H](CO)[C@H](O)[C@H](O[C@]5(C(=O)O)C[C@H](O)[C@@H](NC(C)=O)[C@H]([C@H](O)[C@H](O)CO)O5)[C@H]4O)[C@H](O)[C@H]3NC(C)=O)[C@H]2O)[C@H](O)[C@H]1NC(C)=O [NeuAcα2,3Galβ1,4(6-O-Sulfo)GlcNAcβ1,3Galβ1,4(6-O-Sulfo)GlcNAcβ-O-Me]	–	–	–	–	transfer of [14C]Fuc to the acceptor (human FTVII): efficiently transferring
